Values of other authors as cited in PMC2839367 (The Science of the total environment, 2010).

Columns and labels:
[1] = test system: S. cerevisiae BLYES estrogen sensitive strain; settings: ref Sanseverino et al (2005)
human estrogen receptor = settings: ref Folmar et al (2002)

nonylphenol
EC50 [1]: 17 µM
EC50 (human estrogen receptor): 290 µM
